US20240301409A1, “Chemically Modified Small Activating RNA” (RACTIGEN THERAPEUTICS, priority 2021, published 2024)

Test system: J82 cells
Assay: Cellular proliferation assay (CCK8) in J82 cells, combined with Mitomycin C or valrubicin
Format: cell-based, human
Method: J82 cells were transfected with RAG1-40-31 at concentrations of 0.1, 0.5, 1, 5, 10, 25 and 50 nM for 24 hours, and then Mitomycin C at concentrations of 1, 10, 100, 1000 and 10000 nM was added. The combined treatment was carried out with concentrations in pairs. After treatment, the proliferation of cells was detected using CCK8 kit. FIGS. 14A-14B show the relative proliferation proportion of J82 cells after the combined treatment with chemically modified saRNA RAG1-40-31 and valrubicin. […] Control and DMSO are the blank transfection control and the solvent for dilution control, respectively.
J82 cells were transfected with RAG1-40-31 at concentrations of 0.1, 0.5, 1, 5, 10, 25 and 50 nM for 24 hours, and then valrubicin at concentrations of 1, 10, 100, 1000 and 10000 nM was added. The combined treatment was carried out with concentrations in pairs. After treatment, the cellular proliferation was detected by CCK8 kit. FIGS. 15A-15B show the relative proliferation proportion of T24 cells after the combined treatment with chemically modified saRNA RAG1-40-31 and Mitomycin C. […] Control and DMSO are the blank transfection control and the solvent for dilution control, respectively.
Human bladder cancer cells Ku-7-LG (ATCC), J82 (ATCC) and T24 (ATCC) were cultured in McCoy medium (Gibco) comprising 10% calf serum (Sigma-Aldrich) and 1% penicillin/Streptomycin (Gibco). Cells were cultured at 37° C. under 5% CO2. Ku-7-LG, J82 and T24 cells were plated into 12-well plates at 10×10^4 cells per well, transfected with the small RNA at a concentration of 10 nM (unless otherwise specified) for three days, using RNAiMax (Invitrogen, Carlsbad, CA) according to the manufacturer's instructions. Two replicate wells were set for each treatment.
Cells were plated in a 96-well plate at 2˜4×10^3 cells/well, cultured overnight, and transfected with the oligonucleotide duplexes. Three days after transfection, CCK8 (Dojindo) was used to detect cellular proliferation following manufacturer's instructions. The experimental steps are briefly described as follows: 10 μL of CCK8 solution was added to each well, incubated at 37° C. for 1 hour, and then the absorbance at 450 nm was measured using a microplate reader.
In this example, chemically modified saRNA RAG1-40-31 was used in combination with clinical chemical agents to evaluate the suppressing effect of the combined agents on cancer cells.

Substance: RAG1-40-31: saRNA duplex: sense fCfCAACUCAUUCUCCAAG*U*C (SEQ ID NO 16); antisense U*A*fCfUfUGGAGAAfUGAGfUfUGG*fC*A (SEQ ID NO 12) (sense CCAACUCAUUCUCCAAGUC; antisense UACUUGGAGAAUGAGUUGGCA; 2'-F and phosphorothioate modifications; modified_base (1)..(2) (1,2)=2′-fluoro; modified_base (17)..(19) (17,18,19)=phosphorothioate (PS) backbone modification; modified_base (2)..(21) (2,3,19,20,21)=phosphorothioate (PS) backbone modification; modified_base (3)..(20) (3,4,5,12,16,17,20)=2′-fluoro)
- Relative proliferation proportion of J82 cells (RAG1-40-31 0.1 nM + MMC 10000 nM): 1.5%
- Relative proliferation proportion of J82 cells (RAG1-40-31 0.1 nM + valrubicin 1 nM): 71.0%
- Relative proliferation proportion of J82 cells (RAG1-40-31 0.1 nM + valrubicin 10 nM): 58.2%
- Relative proliferation proportion of J82 cells (RAG1-40-31 0.1 nM + valrubicin 100 nM): 73.2%
- Relative proliferation proportion of J82 cells (RAG1-40-31 0.1 nM + valrubicin 1000 nM): 26.9%
- Relative proliferation proportion of J82 cells (RAG1-40-31 0.1 nM + valrubicin 10000 nM): 9.9%
- Relative proliferation proportion of J82 cells (RAG1-40-31 0.1 nM, Control (no MMC)): 97.9%
- Relative proliferation proportion of J82 cells (RAG1-40-31 0.1 nM, Control (no valrubicin)): 85.1%
- Relative proliferation proportion of J82 cells (RAG1-40-31 0.5 nM + MMC 1 nM): 70.1%
- Relative proliferation proportion of J82 cells (RAG1-40-31 0.5 nM + MMC 10 nM): 69.3%
- Relative proliferation proportion of J82 cells (RAG1-40-31 0.5 nM + MMC 100 nM): 34.9%
- Relative proliferation proportion of J82 cells (RAG1-40-31 0.5 nM + MMC 1000 nM): 10.8%
- Relative proliferation proportion of J82 cells (RAG1-40-31 0.5 nM + MMC 10000 nM): 0.9%
- Relative proliferation proportion of J82 cells (RAG1-40-31 0.5 nM + valrubicin 1 nM): 62.4%
- Relative proliferation proportion of J82 cells (RAG1-40-31 0.5 nM + valrubicin 10 nM): 54.1%
- Relative proliferation proportion of J82 cells (RAG1-40-31 0.5 nM + valrubicin 100 nM): 72.8%
- Relative proliferation proportion of J82 cells (RAG1-40-31 0.5 nM + valrubicin 1000 nM): 24.4%
- Relative proliferation proportion of J82 cells (RAG1-40-31 0.5 nM + valrubicin 10000 nM): 7.7%
- Relative proliferation proportion of J82 cells (RAG1-40-31 0.5 nM, Control (no MMC)): 89.9%
- Relative proliferation proportion of J82 cells (RAG1-40-31 0.5 nM, Control (no valrubicin)): 77.8%
- Relative proliferation proportion of J82 cells (RAG1-40-31 1 nM + MMC 1 nM): 55.8%
- Relative proliferation proportion of J82 cells (RAG1-40-31 1 nM + MMC 10 nM): 57.2%
- Relative proliferation proportion of J82 cells (RAG1-40-31 1 nM + MMC 100 nM): 30.1%
- Relative proliferation proportion of J82 cells (RAG1-40-31 1 nM + MMC 1000 nM): 9.3%
- Relative proliferation proportion of J82 cells (RAG1-40-31 1 nM + MMC 10000 nM): 1.4%
- Relative proliferation proportion of J82 cells (RAG1-40-31 1 nM + valrubicin 1 nM): 59.8%
- Relative proliferation proportion of J82 cells (RAG1-40-31 1 nM + valrubicin 10 nM): 51.6%
- Relative proliferation proportion of J82 cells (RAG1-40-31 1 nM + valrubicin 100 nM): 54.4%
- Relative proliferation proportion of J82 cells (RAG1-40-31 1 nM + valrubicin 1000 nM): 22.7%
- Relative proliferation proportion of J82 cells (RAG1-40-31 1 nM + valrubicin 10000 nM): 7.5%
- Relative proliferation proportion of J82 cells (RAG1-40-31 1 nM, Control (no MMC)): 79.8%
- Relative proliferation proportion of J82 cells (RAG1-40-31 1 nM, Control (no valrubicin)): 73.9%
- Relative proliferation proportion of J82 cells (RAG1-40-31 5 nM + MMC 1 nM): 42.8%
- Relative proliferation proportion of J82 cells (RAG1-40-31 5 nM + MMC 10 nM): 40.8%
- Relative proliferation proportion of J82 cells (RAG1-40-31 5 nM + MMC 100 nM): 26.2%
- Relative proliferation proportion of J82 cells (RAG1-40-31 5 nM + MMC 1000 nM): 7.2%
- Relative proliferation proportion of J82 cells (RAG1-40-31 5 nM + MMC 10000 nM): 1.2%
- Relative proliferation proportion of J82 cells (RAG1-40-31 5 nM + valrubicin 1 nM): 37.9%
- Relative proliferation proportion of J82 cells (RAG1-40-31 5 nM + valrubicin 10 nM): 46.6%
- Relative proliferation proportion of J82 cells (RAG1-40-31 5 nM + valrubicin 100 nM): 50.9%
- Relative proliferation proportion of J82 cells (RAG1-40-31 5 nM + valrubicin 1000 nM): 22.6%
- Relative proliferation proportion of J82 cells (RAG1-40-31 5 nM + valrubicin 10000 nM): 5.5%
- Relative proliferation proportion of J82 cells (RAG1-40-31 5 nM, Control (no MMC)): 59.3%
- Relative proliferation proportion of J82 cells (RAG1-40-31 5 nM, Control (no valrubicin)): 58.4%
- Relative proliferation proportion of J82 cells (RAG1-40-31 10 nM + MMC 1 nM): 37.0%
- Relative proliferation proportion of J82 cells (RAG1-40-31 10 nM + MMC 10 nM): 37.7%
- Relative proliferation proportion of J82 cells (RAG1-40-31 10 nM + MMC 100 nM): 22.2%
- Relative proliferation proportion of J82 cells (RAG1-40-31 10 nM + MMC 1000 nM): 6.9%
- Relative proliferation proportion of J82 cells (RAG1-40-31 10 nM + MMC 10000 nM): 1.0%
- Relative proliferation proportion of J82 cells (RAG1-40-31 10 nM + valrubicin 1 nM): 33.1%
- Relative proliferation proportion of J82 cells (RAG1-40-31 10 nM + valrubicin 10 nM): 37.1%
- Relative proliferation proportion of J82 cells (RAG1-40-31 10 nM + valrubicin 100 nM): 40.4%
- Relative proliferation proportion of J82 cells (RAG1-40-31 10 nM + valrubicin 1000 nM): 20.3%
- Relative proliferation proportion of J82 cells (RAG1-40-31 10 nM + valrubicin 10000 nM): 4.3%
- Relative proliferation proportion of J82 cells (RAG1-40-31 10 nM, Control (no MMC)): 48.9%
- Relative proliferation proportion of J82 cells (RAG1-40-31 10 nM, Control (no valrubicin)): 50.6%
- Relative proliferation proportion of J82 cells (RAG1-40-31 25 nM + MMC 1 nM): 20.8%
- Relative proliferation proportion of J82 cells (RAG1-40-31 25 nM + MMC 10 nM): 25.7%
- Relative proliferation proportion of J82 cells (RAG1-40-31 25 nM + MMC 100 nM): 17.2%
- Relative proliferation proportion of J82 cells (RAG1-40-31 25 nM + MMC 1000 nM): 5.0%
- Relative proliferation proportion of J82 cells (RAG1-40-31 25 nM + MMC 10000 nM): 0.4%
- Relative proliferation proportion of J82 cells (RAG1-40-31 25 nM + valrubicin 1 nM): 26.1%
- Relative proliferation proportion of J82 cells (RAG1-40-31 25 nM + valrubicin 10 nM): 23.9%
- Relative proliferation proportion of J82 cells (RAG1-40-31 25 nM + valrubicin 100 nM): 26.3%
- Relative proliferation proportion of J82 cells (RAG1-40-31 25 nM + valrubicin 1000 nM): 13.3%
- Relative proliferation proportion of J82 cells (RAG1-40-31 25 nM + valrubicin 10000 nM): 2.7%
- Relative proliferation proportion of J82 cells (RAG1-40-31 25 nM, Control (no MMC)): 38.4%
- Relative proliferation proportion of J82 cells (RAG1-40-31 25 nM, Control (no valrubicin)): 45.6%
- Relative proliferation proportion of J82 cells (RAG1-40-31 50 nM + MMC 1 nM): 25.9%
- Relative proliferation proportion of J82 cells (RAG1-40-31 50 nM + MMC 10 nM): 25.8%
- Relative proliferation proportion of J82 cells (RAG1-40-31 50 nM + MMC 100 nM): 13.9%
- Relative proliferation proportion of J82 cells (RAG1-40-31 50 nM + MMC 1000 nM): 3.4%
- Relative proliferation proportion of J82 cells (RAG1-40-31 50 nM + MMC 10000 nM): 0.6%
- Relative proliferation proportion of J82 cells (RAG1-40-31 50 nM + valrubicin 1 nM): 19.7%
- Relative proliferation proportion of J82 cells (RAG1-40-31 50 nM + valrubicin 10 nM): 21.4%
- Relative proliferation proportion of J82 cells (RAG1-40-31 50 nM + valrubicin 100 nM): 23.9%
- Relative proliferation proportion of J82 cells (RAG1-40-31 50 nM + valrubicin 1000 nM): 14.8%
- Relative proliferation proportion of J82 cells (RAG1-40-31 50 nM + valrubicin 10000 nM): 3.2%
- Relative proliferation proportion of J82 cells (RAG1-40-31 50 nM, Control (no MMC)): 34.8%
- Relative proliferation proportion of J82 cells (RAG1-40-31 50 nM, Control (no valrubicin)): 33.5%
